Assay results: the supplement of paper PMC10307832

Assays:
Assay in all cases: relative viability (nuclei count vs DMSO), 5 days (fraction); higher = more cells survive
[1] = compound: CC1=CC(=CC=C1)NC2=NC(=CS2)C3=CC=NC=C3 + COc1cccc2cc(-c3nc([C@H]4CC[C@H](C(=O)O)CC4)n4ncnc(N)c34)[nH]c12 [OSI-027] (partner 0.5 µM)
Outline: (§1)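 Relative viability equals treated-well nuclei counts divided by vehicle-well nuclei counts. Counts came from 4× images of lung cancer cell lines grown in 1536-well plates for 5 days after pin-tool dosing on the day after seeding. Dosing used one drug alone or a fixed anchor-drug dose plus five library-drug doses (not always all listed) in √10 steps, and values are medians of duplicate plates.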

[2] = compound: CC1=CC(=CC=C1)NC2=NC(=CS2)C3=CC=NC=C3 + C[C@]1(O)C[C@@H](c2nc(-c3ccc4ccc(-c5ccccc5)nc4c3)c3c(N)nccn32)C1 [Linsitinib] (partner 1 µM)
Outline: as §1

[3] = compound: CC1=CC(=CC=C1)NC2=NC(=CS2)C3=CC=NC=C3 + N=C(N)NC(=N)NCCc1ccccc1 [Phenformin] (partner 250 µM)
Outline: as §1

Masitinib + Luminespib = compound: Cc1ccc(NC(=O)c2ccc(CN3CCN(C)CC3)cc2)cc1Nc1nc(-c2cccnc2)cs1 [Masitinib] + CCNC(=O)c1noc(-c2cc(C(C)C)c(O)cc2O)c1-c1ccc(CN2CCOCC2)cc1 [Luminespib] (partner 0.01 µM)
Outline: as §1

Cell Line	relative viability ([1]; first compound 0.08 µM)	relative viability ([1]; first compound 0.253 µM)	relative viability ([1]; first compound 0.8 µM)	relative viability ([1]; first compound 2.53 µM)	relative viability ([1]; first compound 8 µM)	relative viability ([2]; first compound 0.08 µM)	relative viability ([2]; first compound 0.253 µM)	relative viability ([2]; first compound 0.8 µM)	relative viability ([2]; first compound 2.53 µM)	relative viability ([2]; first compound 8 µM)	relative viability ([3]; first compound 0.08 µM)	relative viability ([3]; first compound 0.253 µM)	relative viability ([3]; first compound 0.8 µM)	relative viability ([3]; first compound 2.53 µM)	relative viability ([3]; first compound 8 µM)	relative viability (Masitinib + Luminespib; first compound 0.01 µM)	relative viability (Masitinib + Luminespib; first compound 0.03162 µM)	relative viability (Masitinib + Luminespib; first compound 0.1 µM)	relative viability (Masitinib + Luminespib; first compound 0.3162 µM)	relative viability (Masitinib + Luminespib; first compound 1 µM)
RERF-LC-KJ	0.512	0.572	0.569	0.415	0.37	0.78	0.872	0.684	0.683	0.563	0.449	0.403	0.373	0.384	0.363	1.41	1.15	1.42	1.23	1.27
BEN	0.304	0.281	0.295	0.304	0.322	0.881	0.925	0.89	0.777	0.813	0.27	0.254	0.285	0.266	0.25	0.436		0.631	0.378	0.37
LC-2-ad	0.785		0.74	0.79	0.728	0.764	0.821	0.684	0.788	0.739	0.556		0.568	0.585	0.523	0.918	1.18	1.04	0.916	0.929
SW 1573	0.569	0.593	0.723	0.561	0.536	0.845	0.65	0.705	0.901	0.779	0.316	0.36	0.352	0.389	0.399	0.172	0.231	0.214	0.261	0.302
COR-L 105	0.562	0.62	0.561	0.597	0.581	0.822	0.738	0.803	0.808	0.653	0.429	0.495	0.534	0.388	0.496	0.758	0.677	0.776	0.686	0.66
NCI-H1993	0.523	0.524	0.586	0.576	0.56	0.675	0.605	0.714	0.698	0.738	0.445	0.601	0.547	0.529	0.48	0.851	0.791	0.701	0.7	0.766
NCI-H2009	0.589	0.668	0.676	0.625	0.586	1.15	1.16	1.1	1.18	1.15	0.449	0.482	0.46	0.51	0.347	0.969	0.938	1.03	1	1.06
SK-LU-1	0.32	0.374		0.348	0.273	1.03	1.1	0.815	1.17	1	0.452	0.471		0.731	0.63	0.208	0.195	0.2	0.221	0.193
NCI-H2347	0.362	0.328		0.419	0.411	0.751	0.802	0.688	0.948	0.93	0.387	0.381		0.397	0.419	0.758	0.299	0.41	0.556	0.326
EMC-BAC-2	0.356	0.383	0.385	0.375	0.378	0.712	0.817	0.781	0.802	0.718	0.415	0.505	0.58	0.541	0.491	1.01	1.06	1.15	1.13	1.16
NCI-H3122	0.824	1.03	1.12	1.09	0.969	0.991	0.938	0.907	1	0.964	0.359	0.348	0.364	0.373	0.343	0.109	0.0826	0.0942	0.109	0.0792
SK-MES-1	0.517	0.484	0.549	0.714	0.511	0.878	0.933	0.81	1.04	0.874	0.626	0.565	0.592	0.656	0.547	0.544	0.776	0.992	0.707	0.686
EPLC-272H	0.243	0.274	0.258	0.27	0.281	1.08		1.05		1.19	0.275	0.224	0.332	0.307	0.294	0.27	0.237	0.262	0.195	0.232
NCI-H1975	0.699	0.653	0.628	0.483	0.267	0.825	0.868	0.702	0.754	0.738	0.359	0.362	0.383	0.326	0.296	0.246	0.287	0.22	0.156	0.124
NCI-H647	0.531	0.471	0.659	0.585	0.644	1.01	0.992	1.05	1.1	0.815	0.413	0.489	0.5	0.534	0.515	0.223	0.141	0.13	0.195	0.259
NCI-H441	0.492	0.499	0.605	0.61	0.672	0.497	0.574	0.708	0.523	0.497	0.8	0.782	0.892	0.823	0.78	0.288	0.402	0.349	0.407	0.318
NCI-H1355	0.262	0.323	0.291	0.343	0.383	0.713	0.584	0.579	0.673	0.568	0.343	0.376	0.391	0.429	0.362	0.643	0.564	0.766	0.623	0.738
NCI-H23	0.48	0.485	0.654	0.526	0.555	0.491	0.607	0.639	0.584	0.583	0.787	0.711	0.717	0.82	0.779		0.253	0.221	0.22	0.206
NCI-H650	0.509	0.511	0.544	0.475	0.578	0.659	0.739	1.13		1.06	0.426	0.407	0.476	0.372	0.502	0.7	0.908	0.798	0.853	0.766
NCI-H1793	0.238	0.25	0.315	0.249	0.217		0.763	0.92	0.753	0.825	0.255	0.293	0.387	0.408	0.316	0.165	0.166	0.182	0.162	0.567
NCI-H358	0.674	0.821	0.715	0.82	0.728	0.733	0.798	0.639	0.8	0.666	0.371	0.35	0.353	0.402	0.387	0.21	0.299	0.37	0.342	0.186
NCI-H2087	0.499	0.543	0.554	0.673	0.639	0.934	0.862	0.996	0.888	0.798	0.373	0.421	0.449	0.575	0.446	0.158	0.166	0.153	0.202	0.181
NCI-H838	0.318	0.357	0.37	0.386	0.348	0.882	0.937	0.855	0.868	0.651	0.466	0.521	0.537	0.508	0.51	0.314	0.309	0.245	0.241	0.263
NCI-H460	0.623	0.522	0.628	0.486	0.341	0.736	0.95	0.605	0.862	0.525	0.478	0.499	0.511	0.479	0.438	0.0454	0.0362	0.0338	0.0453	0.0276
LOU-NH91	0.552	0.642	0.651	0.648	0.711	0.82	0.925	0.903	0.979	0.769	0.468	0.364	0.63	0.591	0.744	0.307	0.32	0.337	0.272	0.372
NCI-H322M	0.418	0.508	0.574	0.519	0.565	0.832	0.937	0.791	1.12	0.771	0.63	0.726	0.788	0.854	0.797	0.875	0.924	0.878	0.876	0.812
NCI-H520	0.259	0.252	0.302	0.193	0.251	0.91	0.935	0.975	0.986	1	0.514	0.538	0.651	0.308	0.559	0.223	0.24	0.24	0.217	0.2
